Data from patent publication US9938811B2, “Method of enhancing fracture complexity using far-field divert systems” (Baker Hughes, LLC, priority 2013, dated 2018).

Test: Dissolution in deionized water or HCl 15% (Example 1)
Format: physicochemical
Settings: 20 hours at 180° F., then 3 hours at room temperature
Procedure: Phthalic anhydride (obtained from a commercial supplier) and Sample A (8 g of each) were first mixed with 100 mL deionized water or HCl 15% and maintained for 20 hours at 180° F., and then cooled down to room temperature and kept for 3 hours.

O=C1OC(=O)c2ccccc21 [Commercial Phthalic Anhydride, Phthalic anhydride]
Dissolved (%) (8 g in 100 mL HCl 15%): 4%
Dissolved (%) (8 g in 100 mL deionized water): 6%
